Results as given in ChEMBL document CHEMBL4340576, “Synthesis of oxadiazole-coupled-thiadiazole derivatives as a potent β-glucuronidase inhibitors and their molecular docking study” (Bioorg Med Chem, 2019).

The molecules below were run against T1, Beta-glucuronidase (Homo sapiens, UniProt P08236).
T1 sequence (P08236 whole entry): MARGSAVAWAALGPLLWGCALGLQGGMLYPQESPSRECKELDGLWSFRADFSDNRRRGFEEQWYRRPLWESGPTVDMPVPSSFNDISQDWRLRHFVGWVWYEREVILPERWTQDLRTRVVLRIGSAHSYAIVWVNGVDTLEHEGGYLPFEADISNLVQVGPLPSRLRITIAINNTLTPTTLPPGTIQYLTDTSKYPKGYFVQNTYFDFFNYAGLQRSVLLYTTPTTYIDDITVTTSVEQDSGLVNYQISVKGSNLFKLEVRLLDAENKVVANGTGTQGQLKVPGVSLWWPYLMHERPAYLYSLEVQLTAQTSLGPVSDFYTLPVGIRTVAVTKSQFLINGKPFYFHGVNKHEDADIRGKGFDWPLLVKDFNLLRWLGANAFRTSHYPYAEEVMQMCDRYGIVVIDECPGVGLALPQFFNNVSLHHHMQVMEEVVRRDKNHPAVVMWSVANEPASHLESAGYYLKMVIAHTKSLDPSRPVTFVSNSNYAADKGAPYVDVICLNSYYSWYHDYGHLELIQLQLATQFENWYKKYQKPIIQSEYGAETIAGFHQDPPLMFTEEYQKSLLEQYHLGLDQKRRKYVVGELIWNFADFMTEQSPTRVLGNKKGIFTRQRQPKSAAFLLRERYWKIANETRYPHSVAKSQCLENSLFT
Description: Inhibition of human beta-glucuronidase pre-incubated for 30 mins before p-nitrophenyl-beta-D-glucuronide substrate addition by spectrophotometry

With `COc1cc(O)ccc1-c1nnc(-c2ccc(-c3nnc(-c4cccc([N+](=O)[O-])c4)s3)cc2)o1` as the molecule, how does the IC50 read?
The IC50 was “Not Active”.

For `COc1cc(O)ccc1-c1nnc(-c2ccc(-c3nnc(-c4cccnc4)s3)cc2)o1`, which IC50 is on record?
The IC50 was “Not Active”.

Which IC50 does the source give for `COc1cc(O)ccc1-c1nnc(-c2ccc(-c3nnc(-c4ccncc4)s3)cc2)o1` here?
The IC50 was “Not Active”.

For `COc1cc(O)ccc1-c1nnc(-c2ccc(-c3nnc(-c4cccc(C)c4)s3)cc2)o1`, which IC50 is on record?
The IC50 was “Not Active”.
